Data taken from patent US20140093459A1, “NOVEL COMPOUND” (DSM IP ASSETS B.V., priority 2009, published 2014).

Columns and labels:
[1] = Solubility of BMDBM or BEMT in C12-15 alkyl benzoate (saturation, HPLC of supernatant); format: physicochemical
[2] = Solubility of BEMT in 1:1 (w/w) mixture C12-15 alkyl benzoate/PG-UVAB1 (dissolving, storage 1 month at RT); format: physicochemical
[3] = Comparative: solubility of BMDBM in 1:1 (w/w) mixture of C12-15 alkyl benzoate and a polymeric or solid UV-filter (HPLC after 1 month at RT)
Source text: Where necessary the mixture was centrifuged in order to obtain a clear supernatant.

[4] = Reduction of solvent necessary to dissolve solid UV-filter; format: physicochemical

Solubility in C12-15 alkyl benzoate ([1]; C12-15 alkyl benzoate alone (summary table)) [wt.-%]	solubility in the cosmetic solvent C12-15 alkyl benzoate ([1]; C12-15 alkyl benzoate alone, saturation, HPLC of supernatant) [wt.-%]	re-crystallization on storage ([2]; 200 mg BEMT in 800 mg 1:1 C12-15 alkyl benzoate/PG-UVAB1, stored 1 month at RT)	solubility of BEMT in 1:1 (w/w) mixture of C12-15 alkyl benzoate/PG-UVAB1 ([2]; 200 mg BEMT in 800 mg of the mixture, 1 month at RT)	Solubility of BEMT in C12-15 alkyl benzoate/PG-UVAB1 1:1 ([2]; 1:1 mixture with PG-UVAB1) [wt.-%]	Δ solubility related to cosmetic solvent (BEMT) ([2]; 1:1 mixture with PG-UVAB1)	Δ solubility (BEMT) ([2]; 1:1 mixture with PG-UVAB1 versus C12-15 alkyl benzoate alone)	Increase of solubility of BEMT ([2]; BEMT, 1:1 mixture with PG-UVAB1 versus C12-15 alkyl benzoate alone)	Solubility of BMDBM in C12-15 alkyl benzoate/UV-filter 1:1 ([3]; 200 mg BMDBM with 1000 mg of 1:1 (w/w) mixture, supernatant HPLC after 1 month at RT) [wt.-%]	Δ solubility related to cosmetic solvent (BMDBM) ([3]; 1:1 mixture C12-15 alkyl benzoate/UV-filter) [wt.-%]	Δ solubility (BMDBM) ([3]; 1:1 mixture with UV-filter versus C12-15 alkyl benzoate alone) [wt.-%]	amount of 1:1 (w/w) mixture of PG-UVAB1 and diisopropyl sebacate needed to dissolve 0.5 g BMDBM ([4]; 1:1 (w/w) PG-UVAB1/diisopropyl sebacate) [g]	amount of 1:1 (w/w) mixture of PG-UVAB2 and C12-15 alkyl benzoate necessary to dissolve 0.5 g BMDBM ([4]; 1:1 (w/w) PG-UVAB2/C12-15 alkyl benzoate) [g]	Compound
13	13	no re-crystallization occurred	at least 20 wt.-%	20	+13.5 wt.-%	+7 wt.-%	+54%	3	−4	−11	–	–	CCCCC(CC)COc1ccc(-c2nc(-c3ccc(OC)cc3)nc(-c3ccc(OCC(CC)CCCC)cc3O)n2)c(O)c1 (stereo not shown) [BEMT, bis-ethylhexyloxyphenol methoxyphenyl triazine]
–	–	–	–	–	–	–	–	–	–	–	1.4	1.5	butyl methoxydibenzoylmethane [BMDBM]
